These results are taken from patent US11491204B2, “Composition comprising poly I:C and LAG-3-IGG fusion protein” (CYTLIMIC INC., priority 2015, dated 2022).

Some results are limits rather than exact numbers.

Test [1] has as its system P815 tumor cells. As to the kind of experiment: Suppression effect of tumor growth by immunoadjuvant combination (P815 model). The class given is in vivo, DBA/2 mice. The source says: The following substances were used as adjuvants.
Poly I:C (TLR3 agonist) (Invivogen, SanDiego, USA)
RIBOXXOL (TLR3 agonist) (Riboxx, Radebeul, Germany)
MPL (TLR4 agonist) (Invivogen, SanDiego, USA)
Imiquimod (TLR7/8 agonist) (Invivogen, SanDiego, USA)
CpG (TLR9 agonist) (Invivogen, SanDiego, USA)
LAG-3 (Adipogen, SanDiego, USA)
P815 tumor cells were subcutaneously inoculated to DBA/2 mice in an amount of 5×10^5 cells per mouse to prepare cancer model mice. The day of inoculation was specified as Day 0. On Day 7, PIA CTL (2.5×10^5 cells per mouse) were intravenously injected. Day 8 and Day 15, an admixture of PIA peptide (50 μg per mouse) and an adjuvant in PBS was subcutaneously injected. Mice were divided into 9 groups each consisting of 4 or 5 mice and the following adjuvants were used respectively.
Group 1: PIA peptide alone (control)
(§1) Group 2: Poly IC (50 μg/mouse)
Group 3: Poly IC (50 μg/mouse)+LAG-3 (1 μg/mouse)
Group 4: No PIA peptide, Poly IC (50 μg/mouse)+LAG-3 (1 μg/mouse) alone
Group 5: RIBOXXOL (100 μg/mouse)
Group 6: RIBOXXOL (100 μg/mouse)+LAG-3 (1 μg/mouse)
Group 7: MPL (10 μg/mouse)+LAG-3 (1 μg/mouse)
Group 8: Imiquimod (50 μg/mouse)+LAG-3 (1 μg/mouse)
Group 9: CpG (10 μg/mouse)+LAG-3 (1 μg/mouse)

Test [2] has as its system P815 tumor cells. As to the kind of experiment: Cancer vaccine: comparison of adjuvants with P1A peptide in P815-grafted DBA/2 mice. The class given is in vivo. As to conditions: groups of 5 mice; P1A CTL i.v. Day 8; P1A peptide 50 μg + adjuvant s.c. Day 9 and Day 16. The source says: In accordance with the protocol shown in FIG. 1, the effects of adjuvants in cancer vaccines using a cancer-antigen derived peptide were compared.
As cancer model mice, DBA/2 mice, to which P815 cells (DBA/2mouse-derived mouse mastocytoma) were grafted, were put in use.
As a cancer-antigen derived peptide, a peptide (hereinafter referred to as “PIA peptide”) consisting of a partial sequence of PIA protein was used, which is a tumor antigen of P815 tumor and known to be restrictively presented by an MHC H-2Ld. The amino acid sequence of P1A peptide are represented by LPYLGWLVF (SEQ. ID No: 1).
As P1A CTL, a T cell expressing a T cell receptor and recognizing P1A peptide was used. […] Based on the positive ratio, the number of P1A-CTL cells was determined and administered.
As the adjuvants, the following substances were used. • Whole pertussis bacterial cell (PT) (BioFarma, Bandung, Indonesia) • Poly I:C (TLR3 agonist) (Invivogen, SanDiego, USA) • CpG (TLR9 agonist) (Invivogen, SanDiego, USA) • IFA (incomplete Freund's adjuvant) (Seppic, Paris, France) • LAG-3 (Adipogen, SanDiego, USA) Method
P815 tumor cells were subcutaneously inoculated to DBA/2 mice in an amount of 5×10^5 cells per mouse. The day of inoculation was specified as Day 0. On Day 8, P1A CTL (2.5×10^5 cells per mouse) were intravenously injected. […]

The subject of test [3] is B16-F10 melanoma cells. As to the kind of experiment: Tumor growth inhibitory effect by combination of immuno-adjuvants, B16-F10 melanoma inoculation model mice. The class given is in vivo, C57BL/6 mice. As to the method:
To C57BL/6 mice, B16-F10 melanoma cells (1×10^5 cells per mouse) were subcutaneously inoculated to prepare cancer model mice.
The day of inoculation was specified as Day 0. On Day 5 and Day 12, twice in total, an admixture of gp100 peptide (50 μg per mouse) and an adjuvant in PBS was subcutaneously injected. The following adjuvants were used in respective mice groups.
Group 1: IFA (50 μL/mouse)
as §1
Group 3: LAG-3 (1 μg/mouse)
Group 4: LAG-3 (1 μg/mouse)+Poly IC (50 μg/mouse)

Turning to “LPYLGWLVF (listed as Mus musculus) [PIA peptide alone]”, the “Day up to which all mice died” value in test [1] (5 out of 5 mice, PIA peptide without adjuvant) was at most 40 days.
Regarding “Polyinosinic:polycytidylic acid [Poly IC]”, the “mice survived (out of 5)” value in test [1] (with PIA peptide 50 μg s.c. Day 8 and Day 15, time point apparently Day 40) was “Four”. Also, the “number of mice survived until Day 70 without increasing tumor size” value in test [2] worked out at 1. For the same substance, the “effect of extending survival time (in words)” value in test [3] (Poly IC and LAG-3 alone compared to IFA group, combination compared to IFA, Poly IC and LAG-3 groups) is “a significant effect of extending survival time was not observed”. Moreover, in test [3] (gp100 peptide 50 μg + adjuvant s.c. Day 5 and Day 12), the “Day on which five mice all died” value worked out at 35 days.
